Tested on: HD3 with inactivated substrate (rA to dA at cleavage site) (DNA, ribozyme, dA in place of rA at the cleavage site of the substrate strand) CATCTCTTAACGGGGCTGTGCGGCTAGGAAGTAATAGTGAG/CTCACTATAGGAAGAGATG
Assay: CD titration at 267 nm
Details: 500 mM Na+ (NaCl), 500 mM K+ (KCl), no Mg2+; 50 mM HEPES pH 7.5, 0.5 mM EDTA, 25 °C; 30 µM DNA; 0-10 mM histidine

Ka(CD): ~ 2.0 × 10^3 M^-1
Structure (SMILES): N[C@@H](Cc1cnc[nH]1)C(=O)O

From publication PMC11594175 (2024)
